Assays:
Format in all cases: in vivo
db/db mice [1] = assay: Blood glucose in mouse type II diabetes model (limonoid compound, saxagliptin or combination); details: single administration 0.04 g/kg per day by gavage, two weeks, 1 h after the last administration, mean ± SD
Description: (§1) In the present example, db/db mice (line name BKS.Cg-Dock7^m+/+Lepr^db/Nju) were used to perform hypoglycemic efficacy evaluation test of animals (blood glucose level and leptin). The limonoid compound was selected from obacunone, isoobacunoic acid and obacunone glycoside, and saxagliptin single administration group, obacunone single administration group, isoobacunoic acid single administration group, obacunone glycoside single administered group, and respective combination thereof with saxagliptin administration groups were set.
(§2) Conditions for experimental feeding: as type II diabetes model mice, 6-week-old SPF-grade db/db mice were purchased from the Nanjing Model Biology Institute, and subjected to experimental feeding after 7 days of preliminary feeding. It should be noted that the conditions for raising the mice were as follows: the temperature was 23±1° C., the humidity was 55±10%, the lights were turned on between 7 am and 7 pm (the lights were turned off at other time), and the mice were allowed to freely take in water and feed. The experimental feed was mouse growth-stable feed (GB M2118), and the daily feeding and management of the animals were under the responsibility of the animal security department, which provided the animals with sufficient diet and fresh drinking water daily.
Experimental grouping: male db/db mice (20±2 g) were selected, and 18 male mice in each group were tested. The experimental groups included normal control group (db/m, n=18), model group (db/db, n=18), obacunone group (db/db, n=18), isoobacunoic acid group (db/db, n=18), obacunone glycoside group (db/db, n=18), saxagliptin group (db/db, n=18), obacunone/saxagliptin combination group (db/db, n=18), isoobacunoic acid/saxagliptin combination group (db/db, n=18), obacunone glycoside/saxagliptin combination group (db/db, n=18). […]

db/db mice [2] = assay: Blood glucose in mouse type II diabetes model (limonoid compound, linagliptin or combination); details: single administration 0.2 g/kg per day by gavage, two weeks, 1 h after the last administration, mean ± SD
Description: (§3) In the present embodiment, the limonoid compound was selected from nomilin, deacetylnomilin, nomilin acid, deacetylnomilin acid glycoside, and linagliptin single administration group, nomilin single administration group, deacetylnomilin single administration group, nomilin acid single administered group, deacetylnomilin acid glycoside single administration group, and respective combination thereof with linagliptin administration groups were set.
as §2
(§4) Experimental grouping: male db/db mice (20±2 g) were selected, 18 male mice in each group were tested, and drinking bottles were sterilized weekly. […]

db/db mice [3] = assay: Serum insulin (Elisa) in mouse type II diabetes model (limonoid compound, linagliptin or combination); details: single administration 0.2 g/kg per day by gavage, two weeks, mean ± SD
Description: as §3, §2, §4

db/db mice [4] = assay: Serum leptin (Elisa) in mouse type II diabetes model (limonoid compound, saxagliptin or combination); details: single administration 0.04 g/kg per day by gavage, two weeks, mean ± SD
Description: as §1
as §2, with “daily. […]” for “daily.”

[5] = tested on: mouse pancreatic islet β-cell injury model (ICR mice modeled with streptozotocin); assay: Blood glucose in mouse pancreatic islet β-cell injury model (limonoid compound, sitagliptin or combination); details: STZ mice, single administration 0.02 g/kg per day by gavage, two weeks, 1 h after the last administration, mean ± SD
Description: In this example, a mouse pancreatic islet β-cell injury model was established by modeling ICR mice with streptozotocin (STZ) (Li Nan et al., Protective effect of pine pollen on kidney damage in diabetic nephropathy mice, Science and Technology Review, 2014, 32 (4/5): 95-99), and used to complete the evaluation of hypoglycemic effect in animals (this model could simulate pancreatic islet β-cell damage state of type I and type II diabetics). The limonoid compound was selected from the group consisting of limonin, isolimonic acid, limonin glycoside, and isolimonic acid glycoside, and sitagliptin single administration group, limonin single administration group, isolimonic acid single administration group, limonin glycoside singe administration group, isolimonic acid glycoside singe administration group, and respective combination thereof with sitagliptin administration groups were set. Conditions of experimental feeding: ICR mice (20±2 g), aged 6 weeks, purchased from Zhejiang Academy of Medical Sciences, and subjected to experimental feeding after 7 days of preliminary feeding. […] The data were expressed as mean and standard deviation. The data before and after were analyzed by t-test, and P<0.05 was considered statistically significant.

[6] = tested on: mouse pancreatic islet β-cell injury model (ICR mice modeled with streptozotocin); assay: Blood glucose in mouse pancreatic islet β-cell injury model (limonoid compound, vildagliptin or combination); details: STZ mice, single administration 0.1 g/kg per day by gavage, two weeks, 1 h after the last administration, mean ± SD
Experimental: as §2, with “It” for “Conditions for experimental feeding: as type II diabetes model mice, 6-week-old SPF-grade db/db mice were purchased from the Nanjing Model Biology Institute, and subjected to experimental feeding after 7 days of preliminary feeding. It”
SPSS 16.0 software was used for statistical analysis. The data were expressed as mean and standard deviation. The data before and after were analyzed by t-test, and P<0.05 was considered statistically significant.

## CC1(C)O[C@@H](CC(=O)O)[C@]2(C)[C@H]3CC[C@@]4(C)[C@H](c5ccoc5)OC(=O)[C@H]5O[C@]54[C@]3(C)C(=O)C[C@@H]12 [Isoobacunoic acid, isoobacunoic acid]
db/db mice [1]
  Blood glucose value: 14.6 ± 3.1 mmol/L

## CC#CCn1c(N2CCC[C@@H](N)C2)nc2c1c(=O)n(Cc1nc(C)c3ccccc3n1)c(=O)n2C [Linagliptin, linagliptin]
db/db mice [2]
  Blood glucose value: 11.9 ± 2.1 mmol/L
db/db mice [3]
  Insulin: 8.00 ± 1.94 pg/mL

## CC1(C)OC(=O)C=C[C@]2(C)[C@H]3CC[C@@](C)([C@@H](O[C@@H]4O[C@H](CO)[C@@H](O)[C@H](O)[C@H]4O)c4ccoc4)[C@@]4(O[C@@H]4C(=O)O)[C@]3(C)C(=O)C[C@@H]12 [Obacunone glycoside, obacunone glycoside]
db/db mice [1]
  Blood glucose value: 13.6 ± 2.9 mmol/L

## N#C[C@@H]1C[C@@H]2C[C@@H]2N1C(=O)[C@@H](N)C12CC3CC(CC(O)(C3)C1)C2 [Saxagliptin, saxagliptin]
db/db mice [1]
  Blood glucose value: 13.9 ± 3.5 mmol/L
db/db mice [4]
  Leptin: 32.52 ± 5.11 pg/mL

## N[C@@H](CC(=O)N1CCn2c(nnc2C(F)(F)F)C1)Cc1cc(F)c(F)cc1F [Sitagliptin, sitagliptin]
[5]
  Blood glucose value: 21.7 ± 4.9 mmol/L

## N#C[C@@H]1CCCN1C(=O)CNC12CC3CC(CC(O)(C3)C1)C2 [Vildagliptin, vildagliptin]
[6]
  Blood glucose value: 16.9 ± 2.6 mmol/L
